Assay [1] deals with T1, beta-amyloid 1-42 oligomer (20% biotin) (Homo sapiens, UniProt P05067).
T1 construct: 12 μg beta-amyloid 1-42 oligomer (20% biotin); purchased Bachem H-5642; host or cells: synthetic peptide
Description: SPA competition binding assay against 3H-49b on soluble oligomers. Conditions: 50 uM unlabeled competitor, 130 nM 3H-49b. The method, then:
Lyophilized Streptavidin-Ysi beads (GE Healthcare) were reconstituted to 100 mg/mL in deioniozed water, and then further diluted in deionized water to give a suspension containing 0.25 mg/10 μl water. Unlabeled 49b and other benzofuran probes were dissolved in DMSO to give a final stock concentration of 15 mM.
For the saturation-binding assay, isotopic dilution of radiolabeled 49b with unlabeled 49b was performed. ^3H-49b was added to 500 uM of unlabeled 49b to a final concentration of 50 μCi/mL ^3H-49b. The probe solution was then serially diluted in PBS to give six solutions giving 6.6, 13.1, 26.3, 52.5, 105, or 210 uM in the final assay well. Each concentration of the probe solution was incubated with 12 μg beta-amyloid 1-42 oligomer (20% biotin) or 1-40 (20% biotin) fibrils in a total volume of 90 μl. Assays were incubated at room temp for 2 hrs before addition of 10 μL YSi-streptavidin (0.25 mg) SPA bead. Assays were set-up in triplicate in 96-well NBS plates (Costar). Assays were incubated overnight and counted the following morning. […] The specific activities of the four probes were different, however the level of activity was the same at the concentrations where the probes were tested. For this assay, 130 nM of ^3H-49b, 90 nM ^3H-cimetidine, 14 nM ^3H-caffeine, and 6 nM ^3H-AZT were tested for direct binding to 12 ug of beta-amyloid-42 oligomer (20% biotin). Assay conditions were the same as described in saturation binding assay. […]
Data analyses were performed using Sigma Plot or GraphPad Prism® version 4. Curves were fitted using non-linear regression. KD values and IC50 values were estimated from the binding curves.
For the competition binding assay between tritium-labeled 49b and various unlabeled benzofuran analogs, assays contained 130 nM ^3H-49b and 50 uM of each of the unlabeled benzofuran analogs. As controls, 10 uM and 50 uM of unlabeled 49b were included in the assays.

The target of assay [2] is beta-amyloid 1-40 monomers (Homo sapiens, UniProt P05067). Description: Ex vivo fluorescent binding assay, monomers on naive rat brain sections. Conditions: data not shown. The method, then:
(§1) Fresh-frozen tissue sections of Sprauge-Dawley naïve rat brain (Taconic) 10 microns in thickness were fixed with 10% formalin in PBS. Each section of the rat brain was then embedded in paraffin, an optional step that increases the shelf life of the sample. Pre-formed soluble oligomers (100 μM), fibrils (100 μM), or monomers were applied onto tissues, and the slides incubated in a humidified chamber for two hours at 37° C. The slides were washed with PBS three times, then incubated with blocking buffer consisting of 10% normal goat serum in 3% BSA in PBS. To verify the presence of beta-amyloid, 100 μL of a 1/250th dilution of anti-beta-amyloid antibody, 6E10 (Signet Laboratories) was applied onto the tissues. The slides were incubated for 1.5 hours at room temperature or for 45 mins at 37° C. 1 mM stock solutions of 49b and Thioflavin T were prepared in 50% ethanol. The probes were diluted to 50 μM in blocking buffer. […] Microscopic examination and imaging was performed using a Leica wide-field fluorescence microscope using filter cube A (band pass 340-380 nm with a 400 nm dichroic mirror and a long pass 400 nm suppression filter) for 49b, cube E4 (band pass 436 nm with 455 dichroic mirror and a long pass 470 nm suppression filter) for Thioflavin T, and TX2 (band pass 520-600 nm with 595 nm dichroic mirror and 645/75 band pass suppression filter) for 6E10 immunostaining.

Assay [3] deals with beta-amyloid 1-42 monomers (Homo sapiens, UniProt P05067). Described as above. To be noted: data not shown. As for the experimental part: as §1
Sequence of beta-amyloid 1-42 monomers (P05067 672-713 limits assumed): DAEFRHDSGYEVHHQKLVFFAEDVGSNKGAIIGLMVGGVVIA
Assay [4] addresses T2, beta-amyloid 1-40 (20% biotin) fibrils (Homo sapiens, UniProt P05067).
T2 construct: purchased Bachem H-1194; biotinylated H-5914; host or cells: synthetic peptide
Briefly: Scintillation proximity assay (SPA), direct/saturation binding of tritium labeled probe to fibrils. Conditions: immobilized fibrils, identical conditions. The method, then: B. Insoluble A-beta (1-40) fibril formation: Lyophilized human beta-amyloid 1-40 peptide (Catalog number H-1194, Bachem) was solubilized with HFIP to produce a dry clear film following the process described above for beta-amyloid 1-42. The clear film of beta-amyloid 1-40 was diluted with distilled water to achieve a 6 mg/mL concentration. […] The clear solution was diluted to 1 mg/mL with PBS, pH 7.4 to obtain a final concentration of 1 mg/mL beta-amyloid 1-40, and then incubated at 37° C. on an orbital shaker at 200 RPM for 4 days. A cloudy solution was produced, and the fibril production was confirmed by measuring changes in fluorescence of Thioflavin T, as well as by atomic force microscopy and transmission electron microscopy. Fibrils were used immediately after their production was confirmed.
For SPA and atomic force microscopy (AFM) experiments, preparations of soluble oligomers and fibrils contained 20% biotinylated beta-amyloid 1-42 and 1-40, respectively (H-5642, H-5914, Bachem). […]
For the saturation-binding assay, isotopic dilution of radiolabeled 49b with unlabeled 49b was performed. ^3H-49b was added to 500 uM of unlabeled 49b to a final concentration of 50 μCi/mL ^3H-49b. […] Assays were incubated overnight and counted the following morning. […]
In general terms: In a scintillation proximity assay essentially only radioactivity close to the scintillant gives light.

SMILES strings stand for the structures. Entries after “also recorded” stand apart in the source; their conditions may differ.

T2 sequence (P05067 672-711 limits assumed): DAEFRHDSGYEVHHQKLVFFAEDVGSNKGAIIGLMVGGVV
T1 sequence (P05067 672-713 limits assumed): as the sequence (P05067 672-713 limits assumed) above
Sequence of beta-amyloid 1-40 monomers (P05067 672-711 limits assumed): as the sequence (P05067 672-711 limits assumed) above

Regarding `O=Cc1ccc(-c2oc3ccccc3c2CO)o1` [Compound 49b, 2-(2-formyl-5-furanyl)-3-hydroxymethyl benzofuran], the inhibition at 50 µM in assay [1] amounted to 61%. In addition, the “staining of beta-amyloid 1-40 monomers” value in assay [2] is “did not stain”. Also, in assay [3], the “staining of beta-amyloid 1-42 monomers” value is given as “did not stain”. In addition, in assay [4], the affinity to fibrils result is “no measurable affinity; also recorded: No demonstrable affinity”.

The inhibition is the percentage by which the read-out fell short of the control. A higher inhibition goes with strong suppression.
